{
  "source": "patent US7713559B2",
  "about": "“Amorphous water-soluble calcium citrate salts and method of making and using same” (Kraft Foods Global Brands LLC, priority 2004, dated 2010)",
  "key": {"[1]": {"assay": "pH and initial solution appearance of powders added to water at 1 percent", "type": "physicochemical", "conditions": "powder added to water at a level of 1 percent", "method": "Powders prepared according to the present invention, as described above, were added to water at a level of 1 percent to measure pH and assess initial solution appearance. The crystalline commercial 3:2 mole ratio TCC reference material was included for comparison."}, "[2]": {"assay": "dissolution in water and freedom from haze and sediment at 350 mg calcium per eight fluid ounce serving", "type": "physicochemical", "excerpt": "The solution remained completely free of haze and sediment for at least two days of storage at room temperature. Similar or even better results were obtained from the salts prepared having calcium:citrate mole ratios lower than 2:2, even when dissolved in water at higher concentrations.\nThese powders, in spite of the sediment produced, would provide very acceptable performance in many, if not most, food applications, including instant beverage mixes and acidified RTD beverages.\nThis behavior might also be acceptable in some situations (i.e., opaque instant beverage mixes), but appears to represent a practical upper limit for applications that require high levels of soluble calcium and/or require a sediment-free transparent appearance.\nAs an alternative to freeze drying, an amorphous 2:2 mole ratio calcium citrate salt, using the same ingredients as in Example 1, was also successfully produced via spray drying (i.e., pilot scale drying using standard operating conditions and procedures). In this case, chilled calcium hydroxide and citric acid solutions were combined and rapidly spray dried before solidification or sediment formation could occur. […] In a large scale commercial process, the citric acid and calcium hydroxide (or other suitable reagents) would be beneficially combined just prior to spray drying to limit the potential for solidification or sediment formation.\nOne batch of the chilled citric acid solution was poured into a mix tank jacketed with cooling water and one batch of calcium hydroxide suspension was added with stirring. […] The clear solution was immediately pumped into a semi-works scale spray dryer, fitted with an atomizing nozzle, at a flow rate of about 0.5 kg per minute. Additional batches of citric acid solution and calcium hydroxide suspension were similarly added to the mix tank as needed to prevent complete emptying. A sample of fine white powder was collected from the spray dryer after ten minutes of operation. […] After a further fifteen minutes, the cooling water was shut off from the jacketed mix tank. […] In less than one hour, the atomizing nozzle and pipe between the mix tank and the spray dryer became plugged with an accumulated deposit of insoluble crystalline calcium citrate."}, "[3]": {"assay": "shelf life testing of calcium-fortified RTD beverage", "type": "physicochemical", "conditions": "CRYSTAL LIGHT RTD lemon beverage", "method": "Fortified RTD beverages were formulated with several forms of calcium citrate. The visual appearance, flavor, and stability of the products were evaluated over a seven-month period by an experienced panel. Identical samples of each fortified beverage were prepared for shelf life testing under both ambient (22° C.) and refrigerated (4° C.) storage conditions.\nThe freeze dried amorphous 2:2 mole ratio calcium citrate salt (17% calcium) of Example 1 was successfully used to fortify a ready-to-drink sugar-free lemon-flavored beverage (CRYSTAL LIGHT®) with 350 mg calcium per eight fluid ounce serving (“excellent source of calcium” level). To formulate the calcium-fortified powdered mix, eight fluid ounces of commercial CRYSTAL LIGHT® RTD beverage mix was mixed thoroughly with 2 g of the freeze dried amorphous 2:2 mole ratio calcium citrate salt."}, "[4]": {"assay": "calcium-fortified powdered instant drink mixes reconstituted with cold water", "experimental": "One sample of the amorphous salt (2.0 g) was combined with 17.0 g sweetened Cherry Kool-Aid® powdered instant drink mix in a 400 ml beaker. The powdered drink mix contained sugar, fructose, citric acid, calcium phosphate (not a significant source of calcium), artificial flavor, artificial colors, and ascorbic acid. Another sample of the amorphous salt (2.0 g) was combined with 2.0 g artificially-sweetened Lemon CRYSTAL LIGHT® powdered instant drink mix and placed in a 400 ml beaker. The powdered drink mix contained citric acid, potassium citrate, maltodextrin, aspartame, magnesium oxide, natural flavor, lemon juice solids, acesulfame potassium, artificial colors, and BHA."}, "[5]": {"conditions": "room temperature; cited from earlier work"}, "[6]": {"conditions": "freeze dried powders of Example 1 or commercial salts, room temperature water, 350 mg calcium per eight fluid ounce serving"}},
  "data": [
    {"molecule": "O=C([O-])CC(O)(CC(=O)O)C(=O)O.O=C([O-])CC(O)(CC(=O)O)C(=O)O.[Ca+2]", "note": "[1:2, monocalcium citrate]", "values": [
      {"measurement": "Initial Solution Appearance", "setting": "[1]", "result": "No haze; no sediment"},
      {"measurement": "Solution pH", "setting": "[1]", "result": 3.4}
    ]},
    {"molecule": "O=C([O-])CC(O)(CC(=O)O)C(=O)[O-].[Ca+2]", "note": "[2:2, dicalcium citrate]", "values": [
      {"measurement": "time solution remained completely free of haze and sediment", "setting": "[2]; freeze dried powder, 2 g in 240 ml water, storage at room temperature", "result": "at least two"},
      {"measurement": "dissolution behaviour on addition to water", "setting": "[2]; [6]", "result": "instantly dissolving clear solution"},
      {"measurement": "dissolution in cold water", "setting": "[2]; larger spray dryer, sample collected after ten minutes of operation, feed cooled, 350 mg calcium per eight fluid ounces", "result": "rapidly dissolved in cold water without haze or precipitate"},
      {"measurement": "dissolution in water", "setting": "[2]; larger spray dryer, sample collected after thirty minutes, cooling water shut off", "result": "did not dissolve completely in water"},
      {"measurement": "dissolution behaviour on addition to water", "setting": "[2]; spray dried salt of Example 2 (pilot scale), 2 g in 240 ml room temperature water, 350 mg calcium per eight ounce serving", "result": "instantly dissolving clear solution"},
      {"measurement": "time solution remained completely free of sediment", "setting": "[2]; spray dried salt of Example 2 (pilot scale), room temperature", "result": "at least three"},
      {"measurement": "sediment in fortified RTD beverage during shelf life evaluation", "setting": "[3]; 350 mg calcium per eight fluid ounces, seven-month period, room temperature (22° C.) and refrigeration (4° C.)", "result": "remained sediment free"},
      {"measurement": "dissolution when water was added to fortified drink mix", "setting": "[4]; 2.0 g salt with Cherry Kool-Aid or Lemon CRYSTAL LIGHT mix, eight fluid ounces cold water, no stirring", "result": "dissolved immediately"},
      {"measurement": "time reconstituted beverage remained free of sediment", "setting": "[4]; Cherry Kool-Aid and Lemon CRYSTAL LIGHT mixes, 350 mg calcium per serving", "result": "at least 24 hours"},
      {"measurement": "Initial Solution Appearance", "setting": "[1]", "result": "No haze; no sediment"},
      {"measurement": "Solution pH", "setting": "[1]", "result": 4.1}
    ]},
    {"molecule": "TCC tetrahydrate [3:2*, reference compound]", "values": [
      {"measurement": "haze and sediment produced at first, on or soon after addition to water", "setting": "[2]; 350 mg calcium per eight fluid ounce serving", "result": "immediately produced a large amount of a coarse, gritty white sediment"},
      {"measurement": "dissolution behaviour on addition to water", "setting": "[2]; [6]", "result": "did not completely disperse in water"},
      {"measurement": "solubility in water", "setting": "[5]", "result": "less than 0.1%"},
      {"measurement": "soluble calcium provided per fluid ounce of water", "setting": "[5]", "result": "about 6 mg"},
      {"measurement": "sediment in fortified RTD beverage upon admixture of the ingredients", "setting": "[3]; amounts to provide the same level of calcium", "result": "noticeable sediment formation"},
      {"measurement": "sediment formation in reconstituted beverage", "setting": "[4]; 1.7 g in place of the amorphous salt, Cherry Kool-Aid and Lemon CRYSTAL LIGHT mixes", "result": "large amounts of coarse gritty sediment were formed immediately"},
      {"measurement": "dissolution of the sediment", "setting": "[4]; with rapid stirring or with the passage of time", "result": "did not dissolve"}
    ]},
    {"molecule": "sesqui-calcium citrate [1.5:2]", "values": [
      {"measurement": "Initial Solution Appearance", "setting": "[1]", "result": "No haze; no sediment"},
      {"measurement": "Solution pH", "setting": "[1]", "result": 3.8}
    ]}
  ]
}
